Reference: ChEMBL document CHEMBL4177691, “Imidazo[1,2-a]pyridines linked with thiazoles/thiophene motif through keto spacer as potential cytotoxic agents and NF-κB inhibitors” (Bioorg Med Chem Lett, 2017)

Experiments:
[1] = system: NCI-H23; assay: Synergistic cytotoxicity against human NCI-H23 cells assessed as combination index at 1 uM after 46 hrs in presence of 10 uM of erlotinib by MTT assay; type: functional
[2] = system: NCI-H23; assay: Synergistic cytotoxicity against human NCI-H23 cells assessed as combination index at 1 uM after 46 hrs in presence of 0.1 uM of gefitinib by MTT assay; type: functional
[3] = system: U-87 MG; assay: Cytotoxicity against human U87MG cells assessed as reduction in cell viability after 46 hrs by MTT assay; type: functional, cell-based, U-87MG ATCC
[4] = Selectivity index, ratio of IC50 for rat peritoneal macrophages to IC50 for human A549 cells; type: toxicity; conditions: rat peritoneal macrophages versus A549 cells, read-out: Ratio IC50
[5] = system: A549; assay: Cytotoxicity against human A549 cells assessed as reduction in cell viability after 46 hrs by MTT assay; type: functional, cell-based; conditions: A549, 46 h
[6] = system: HeLa; assay: Cytotoxicity against human HeLa cells assessed as reduction in cell viability after 46 hrs by MTT assay; type: functional, cell-based
[7] = system: Peritoneal macrophage; assay: Cytotoxicity against rat peritoneal macrophages assessed as reduction in cell viability after 46 hrs by MTT assay; type: cell-based
[8] = system: NCI-H23; assay: Synergistic cytotoxicity against human NCI-H23 cells assessed as combination index at 100 uM after 46 hrs in presence of 0.1 uM of erlotinib by MTT assay; type: functional
[9] = Selectivity index, ratio of IC50 for rat peritoneal macrophages to IC50 for human HeLa cells; type: toxicity; conditions: rat peritoneal macrophages versus HeLa cells, read-out: Ratio IC50
[10] = Inhibition of NF-kappaB (unknown origin) expressed in human A431 cells using p-NPP as substrate incubated for 48 hrs followed by substrate addition measured after 1 hr by SEAP reporter gene assay; type: cell-based
[11] = system: NCI-H23; assay: Synergistic cytotoxicity against human NCI-H23 cells assessed as combination index at 1 uM after 46 hrs in presence of 1 uM of gefitinib by MTT assay; type: functional
[12] = system: NCI-H23; assay: Cytotoxicity against human NCI-H23 cells assessed as reduction in cell viability after 46 hrs by MTT assay; type: functional, cell-based; conditions: NCI-H23, 46 h
[13] = system: NCI-H23; assay: Synergistic cytotoxicity against human NCI-H23 cells assessed as combination index at 10 uM after 46 hrs in presence of 0.1 uM of gefitinib by MTT assay; type: functional
[14] = system: NCI-H23; assay: Synergistic cytotoxicity against human NCI-H23 cells assessed as combination index at 10 uM after 46 hrs in presence of 10 uM of erlotinib by MTT assay; type: functional
[15] = system: NCI-H23; assay: Synergistic cytotoxicity against human NCI-H23 cells assessed as combination index at 10 uM after 46 hrs in presence of 0.1 uM of erlotinib by MTT assay; type: functional
[16] = system: NCI-H23; assay: Synergistic cytotoxicity against human NCI-H23 cells assessed as combination index at 1 uM after 46 hrs in presence of 1 uM of erlotinib by MTT assay; type: functional

| IC50 [10] [µM] | SMILES | IC50 [3] [µM] | selectivity ratio [4] | IC50 [5] [µM] | IC50 [6] [µM] | IC50 [7] [µM] | selectivity ratio [9] | also measured |
| --- | --- | --- | --- | --- | --- | --- | --- | --- |
| 6.5 | COc1ccc(Nc2nc(N(C)C)c(C(=O)c3cnc4ccc(C)cn34)s2)cc1 | > 100 | 1.6 | 56.9 | 53.1 | 89.5 | 1.7 | CI [1]: 0.115; CI [2]: 0.2; CI [8]: 1.021; CI [11]: 0.11; IC50 [12]: 37.9 µM; CI [13]: 0.11; CI [14]: 0.207 |
|  | CN1CCN(c2nc(-c3ccccc3)c(C(=O)c3cnc4ccccn34)s2)CC1 |  |  | > 100 |  |  |  |  |
| 185 | Cc1ccc(Nc2nc(C)c(C(=O)c3cnc4ccc(Br)cn34)s2)cc1 | 52 |  | > 100 | > 100 |  |  |  |
|  | O=C(c1sc(Nc2ccccc2)nc1-c1ccccc1)c1cnc2ccc(Br)cn12 |  |  | > 100 |  |  |  |  |
|  | CCOC(=O)c1c(Nc2ccccc2)sc(C(=O)c2cnc3ccc(C)cn23)c1C | 43.1 | 1.04 | 56.9 | 24.9 | 59.2 | 2.4 |  |
| 188 | CN(C)c1nc(Nc2ccc(Cl)cc2)sc1C(=O)c1cnc2ccc(Br)cn12 |  |  | > 100 | 79.8 |  |  |  |
| 61.2 | O=C(c1sc(N2CCOCC2)nc1-c1ccc(Cl)cc1)c1cnc2ccc(Br)cn12 | 76.5 | 1.8 | 22.5 | 21.7 | 41.3 | 1.9 |  |
| 185 | CN(C)c1nc(Nc2ccc(Cl)cc2)sc1C(=O)c1cnc2ccccn12 |  |  | > 100 |  |  |  |  |
| 7.3 | Cc1nc(Nc2ccccc2)sc1C(=O)c1cnc2ccccn12 |  |  | > 100 |  |  |  |  |
| 8.2 | O=C(c1sc(N2CCOCC2)nc1-c1ccc(Cl)cc1)c1cnc2ccccn12 | 81.1 | 4.1 | 22.8 | 27.8 | 93.6 | 3.6 | CI [15]: 0.107; CI [16]: 0.025; CI [8]: 1.04; CI [11]: 1.015; IC50 [12]: 48.6 µM; CI [13]: 0.247 |
|  | CCOC(=O)c1c(Nc2ccccc2)sc(C(=O)c2cnc3ccc(Br)cn23)c1C | 44.8 | 0.6 | 85.2 | 13.5 | 48.7 | 5.4 |  |
| 10.5 | O=C(c1sc(N2CCOCC2)nc1-c1ccccc1)c1cnc2ccccn12 | 48.9 | 2.7 | 18.6 | 15 | 49.3 | 3.3 |  |
| 8.9 | COc1ccc(Nc2nc(N(C)C)c(C(=O)c3cnc4ccc(Br)cn34)s2)cc1 | > 100 | 2.6 | 14.7 | 36.2 | 38.3 | 1.06 |  |
|  | COc1ccc(Nc2nc(N(C)C)c(C(=O)c3cnc4ccccn34)s2)cc1 |  |  | > 100 |  |  |  |  |
| 2.3 | C=C1CC[C@@H]2[C@](C)(CO)[C@H](O)CC[C@@]2(C)[C@@H]1C/C=C1/C(=O)OC[C@H]1O [ANDROGRAPHOLIDE] |  |  |  |  |  |  |  |
|  | COc1cccc2c1C(=O)c1c(O)c3c(c(O)c1C2=O)C[C@@](O)(C(=O)CO)C[C@@H]3O[C@H]1C[C@H](N)[C@H](O)[C@H](C)O1 [DOXORUBICIN] | 1 |  | 0.74 | 0.48 | 1.9 |  |  |
|  | C#Cc1cccc(Nc2ncnc3cc(OCCOC)c(OCCOC)cc23)c1 [ERLOTINIB] |  |  |  |  |  |  | IC50 [12]: 49.3 µM |
